In ChEMBL document CHEMBL1150155, “Purealidin S and purpuramine J, bromotyrosine alkaloids from the Fijian marine sponge Druinella sp” (2002):
In brackets after ≈: the same amount, converted by molar mass.

Experiments:
A2780 = test: Cytotoxicity against human A2780 cells; type: functional; conditions: read-out: ID50 (the source's name)
K562 = test: Cytotoxicity against human K562 cells; type: functional; conditions: read-out: ID50 (the source's name)

Structure (SMILES) | IC50 (A2780) | IC50 (K562)
CNCCCOc1c(Br)cc(CCNC(=O)C2=NO[C@]3(C=C(Br)C(OC)=C(Br)[C@@H]3O)C2)cc1Br | 7.44 µg/mL (≈ 10.2 µM) | 6.02 µg/mL (≈ 8.23 µM)
COC1=C(Br)[C@@H](O)[C@]2(C=C1Br)CC(C(=O)NCCc1cnc[nH]1)=NO2 [AEROPHOBIN 1] | 21.5 µg/mL (≈ 45.2 µM) | 24.1 µg/mL (≈ 50.6 µM)
COC1=C(Br)[C@H](O)[C@@]2(C=C1Br)CC(C(=O)NCCCc1cnc(N)[nH]1)=NO2 [AEROPHOBIN 2] | > 10 µg/mL | 6.91 µg/mL (≈ 13.7 µM)
COc1ccc(C/C(=N/O)C(=O)NCCc2cc(Br)c(OCCCN(C)C)c(Br)c2)cc1Br [APLYSAMINE 2] | 2.83 µg/mL (≈ 4.35 µM) | 1.37 µg/mL (≈ 2.11 µM)
COC1=C(Br)[C@@H](O)[C@]2(C=C1Br)CC(C(=O)NCCCOc1c(Br)cc(CCN)cc1Br)=NO2 [ARAPLYSILLIN 1] | 18.6 µg/mL (≈ 25.9 µM) | 27.9 µg/mL (≈ 39 µM)
COC1=C(Br)[C@H](O)[C@@]2(C=C1Br)CC(C(=O)NCCCOc1c(Br)cc(CCNC(=O)CCCCCCCCCCCC(C)C)cc1Br)=NO2 [ARAPLYSILLIN 2] | 14.8 µg/mL (≈ 15.7 µM) | 42.7 µg/mL (≈ 45.4 µM)
COC1=C(Br)[C@@H](O)[C@]2(C=C1Br)CC(C(=O)NCCc1cnc(N)[nH]1)=NO2 [PUREALIDIN J] | > 10 µg/mL | > 10 µg/mL
CNCCCOc1c(Br)cc(CCNC(=O)/C(Cc2ccc(OC)c(Br)c2)=N/O)cc1Br [PURPUREAMINE I] | 1.7 µg/mL (≈ 2.67 µM) | 1.24 µg/mL (≈ 1.95 µM)
COc1ccc(C/C(=N\O)C(=O)NCCc2cc(Br)c(OCCC[N+](C)(C)[O-])c(Br)c2)cc1Br [PURPUREAMINE J] | 6.77 µg/mL (≈ 10.2 µM) | 5.97 µg/mL (≈ 8.96 µM)
